The values below come from patent US7659245B2, “Macrocylic inhibitors of hepatitis C virus” (Tibotec Pharmaceuticals Ltd, priority 2005, dated 2010).

The test system of assay [1] is HCV replicons (Huh-7 luc/neo cells, NS3-NS5B regions of HCV type 1b). Put plainly: Replicon assay: inhibition of HCV RNA replication in Huh-Luc cells (luciferase read-out). It is filed as cell-based. The note with it: Hepatitis C virus, Huh-7, 72 h, HCV type 1b replicon, luciferase activity after three days. As for the experimental part:
The in vitro antiviral activity against HCV of the compounds of formula (I) was tested in a cellular HCV replicon system based on Lohmann et al. (1999) Science 285:110-113, with the further modifications described by Krieger et al. (2001) Journal of Virology 75: 4614-4624 (incorporated herein by reference), which is further exemplified in the examples section. This model, while not a complete infection model for HCV, is widely accepted as the most robust and efficient model of autonomous HCV RNA replication currently available. […] It will be appreciated that it is important to distinguish between compounds that specifically interfere with HCV functions from those that exert cytotoxic or cytostatic effects in the HCV replicon model, and as a consequence cause a decrease in HCV RNA or linked reporter enzyme concentration. Assays are known in the field for the evaluation of cellular cytotoxicity based for example on the activity of mitochondrial enzymes using fluorogenic redox dyes such as resazurin. Furthermore, cellular counter screens exist for the evaluation of non-selective inhibition of linked reporter gene activity, such as firefly luciferase. Appropriate cell types can be equipped by stable transfection with a luciferase reporter gene whose expression is dependent on a constitutively active gene promoter, and such cells can be used as a counter-screen to eliminate non-selective inhibitors.
The compounds of formula (I) were examined for activity in the inhibition of HCV RNA replication in a cellular assay. […] The cellular assay was based on a bicistronic expression construct, as described by Lohmann et al. (1999) Science vol. 285 pp. 110-113 with modifications described by Krieger et al. (2001) Journal of Virology 75: 4614-4624, in a multi-target screening strategy. In essence, the method was as follows.
The assay utilized the stably transfected cell line Huh-7 luc/neo (hereafter referred to as Huh-Luc). This cell line harbors an RNA encoding a bicistronic expression construct comprising the wild type NS3-NS5B regions of HCV type 1b translated from an Internal Ribosome Entry Site (IRES) from encephalomyocarditis virus (EMCV), preceded by a reporter portion (FfL-luciferase), and a selectable marker portion (neo^R, neomycine phosphotransferase). The construct is bordered by 5′ and 3′ NTRs (non-translated regions) from HCV type 1b. Continued culture of the replicon cells in the presence of G418 (neo^R) is dependent on the replication of the HCV RNA. The stably transfected replicon cells that express HCV RNA, which replicates autonomously and to high levels, encoding inter alia luciferase, are used for screening the antiviral compounds.
The replicon cells were plated in 384 well plates in the presence of the test and control compounds which were added in various concentrations. Following an incubation of three days, HCV replication was measured by assaying luciferase activity (using standard luciferase assay substrates and reagents and a Perkin Elmer ViewLux™ ultraHTS microplate imager). Replicon cells in the control cultures have high luciferase expression in the absence of any inhibitor. The inhibitory activity of the compound on luciferase activity was monitored on the Huh-Luc cells, enabling a dose-response curve for each test compound. EC50 values were then calculated, which value represents the amount of the compound required to decrease by 50% the level of detected luciferase activity, or more specifically, the ability of the genetically linked HCV replicon RNA to replicate.
(In antiviral work, replicon cells carry a viral genome segment that copies itself.)

Assay [2] deals with full-length hepatitis C NS3 protease enzyme (HCV NS3/4A protease complexes) (Hepatitis C virus genotype 1a, UniProt P27958). Put plainly: Inhibition assay (enzymatic assay) of HCV NS3/4A protease. Format: biochemical. The note with it: enzyme 1 nM, 25 μM NS4A cofactor, 0.5 μM depsipeptide substrate, 30° C., competitive model. As for the experimental part:
The aim of this in vitro assay is to measure the inhibition of HCV NS3/4A protease complexes by the compounds of the present invention. This assay provides an indication of how effective compounds of the present invention would be in inhibiting HCV NS3/4A proteolytic activity.
The inhibition of full-length hepatitis C NS3 protease enzyme was measured essentially as described in Poliakov, 2002 Prot Expression & Purification 25 363 371. Briefly, the hydrolysis of a depsipeptide substrate, Ac-DED(Edans)EEAbuψ[COO]ASK(Dabcyl)-NH2 (AnaSpec, San José, USA), was measured spectrofluorometrically in the presence of a peptide cofactor, KKGSVVIVGRIVLSGK (Åke Engström, Department of Medical Biochemistry and Microbiology, Uppsala University, Sweden). [Landro, 1997 #Biochem 36 9340-9348]. The enzyme (1 nM) was incubated in 50 mM HEPES, pH 7.5, 10 mM DTT, 40% glycerol, 0.1% n-octyl-D-glucoside, with 25 μM NS4A cofactor and inhibitor at 30° C. for 10 min, whereupon the reaction was initiated by addition of 0.5 μM substrate. Inhibitors were dissolved in DMSO, sonicated for 30 sec. and vortexed. The solutions were stored at −20° C. between measurements.
The final concentration of DMSO in the assay sample was adjusted to 3.3%. The rate of hydrolysis was corrected for inner filter effects according to published procedures. [Liu, 1999 Analytical Biochemistry 267 331-335]. Ki values were estimated by non-linear regression analysis (GraFit, Erithacus Software, Staines, MX, UK), using a model for competitive inhibition and a fixed value for Km (0.15 μM). A minimum of two replicates was performed for all measurements.

pEC50, pKi: −log10 of the molar value. A value given as a limit tells only on which side of the number the result lay.

full-length hepatitis C NS3 protease enzyme (HCV NS3/4A protease complexes), sequence (P27958 1027-1657, one chain of several): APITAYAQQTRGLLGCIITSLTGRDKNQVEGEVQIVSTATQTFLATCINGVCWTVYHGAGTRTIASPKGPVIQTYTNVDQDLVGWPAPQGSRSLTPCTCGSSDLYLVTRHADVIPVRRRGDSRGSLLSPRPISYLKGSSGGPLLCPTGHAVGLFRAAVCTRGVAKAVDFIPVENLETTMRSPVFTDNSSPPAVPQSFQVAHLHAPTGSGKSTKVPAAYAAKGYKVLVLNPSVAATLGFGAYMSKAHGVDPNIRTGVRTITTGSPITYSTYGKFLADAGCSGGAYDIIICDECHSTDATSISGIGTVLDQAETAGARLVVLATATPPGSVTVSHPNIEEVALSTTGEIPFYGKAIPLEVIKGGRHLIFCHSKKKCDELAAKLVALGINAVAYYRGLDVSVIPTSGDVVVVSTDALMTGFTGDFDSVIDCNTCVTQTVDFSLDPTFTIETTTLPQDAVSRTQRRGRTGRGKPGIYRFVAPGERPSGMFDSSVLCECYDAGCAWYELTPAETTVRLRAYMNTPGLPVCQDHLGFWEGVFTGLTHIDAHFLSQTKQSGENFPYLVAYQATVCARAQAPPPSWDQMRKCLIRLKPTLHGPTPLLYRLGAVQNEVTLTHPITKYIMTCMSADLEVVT

For orientation: pEC50 means the EC50 on a negative log10 scale, so that one unit is a factor of ten. The term pKi denotes the Ki on a negative log10 scale, so that one unit is a factor of ten. The low end stands for a high Ki, the high end for a low Ki. For the compound `COc1ccc2c(O[C@@H]3C[C@H]4C(=O)N[C@]5(C(=O)NS(=O)(=O)C6CC6)C[C@H]5/C=C\CCCCN(C)C(=O)[C@@H]4C3)nc(-c3ccccc3)nc2c1` [Compound 21, Cyclopropanesulfonic acid [17-(7-methoxy-2-phenyl-quinazolin-4-yloxy)-13-methyl-2,14-dioxo-3,13-diaza-tricyclo[13.3.0.0*4,6*]octadec-7-ene-4-carbonyl]-amide], the pEC50 in assay [1] was 6.70 to 9.30. Further, the negative-log Ki (pKi) in assay [2] was 8.31 to 10.00.

With `CN1CCCC/C=C\[C@@H]2C[C@@]2(C(=O)NS(=O)(=O)C2CC2)NC(=O)[C@@H]2C[C@@H](Oc3nc(-c4ccccc4)nc4ccccc34)C[C@H]2C1=O` [Compound 31, Cyclopropanesulfonic acid [13-methyl-2,14-dioxo-17-(2-phenylquinazolin-4-yl-oxy)3,13-diaza-tricyclo[13.3.0.0*4,6*]octadec-7-ene-4-carbonyl]amide], in assay [1], the negative-log EC50 (pEC50) is 6.70 to 9.30. In addition, the pKi in assay [2] was 8.31 to 10.00.

`CN1CCN(c2nc(O[C@@H]3C[C@H]4C(=O)N[C@]5(C(=O)NS(=O)(=O)C6CC6)C[C@H]5/C=C\CCCCN(C)C(=O)[C@@H]4C3)c3ccccc3n2)CC1` [Compound 34, Cyclopropanesulfonic acid {13-methyl-17-[2-(4-methyl-piperazin-1-yl)quinazolin-4-yloxy]-2,14-dioxo-3,13-diaza-tricyclo[13.3.0.0*4,6*]octadec-7-ene4-carbonyl}-amide]: the pEC50 in assay [1] is 6.00 to 6.70. Besides, the pKi in assay [2] is 7.00 to 8.30.

`CN1CCCC/C=C\[C@@H]2C[C@@]2(C(=O)NS(=O)(=O)C2CC2)NC(=O)[C@@H]2C[C@@H](Oc3nc(N4CCOCC4)nc4ccccc34)C[C@H]2C1=O` [Compound 36, Cyclopropanesulfonic acid [13-methyl-17-(2-morpholin-4-yl-quinazolin-4-yloxy)-2,14-dioxo-3,13-diaza-tricyclo[13.3.0.0*4,6*]octadec-7-ene-4-carbonyl]-amide]: the negative logarithm of the EC50 (pEC50) in assay [1] was 6.00 to 6.70. In addition, the negative-log Ki (pKi) in assay [2] was 7.00 to 8.30.

Consider `CC(C)c1csc(-c2nc(O[C@@H]3C[C@H]4C(=O)N[C@]5(C(=O)NS(=O)(=O)C6CC6)C[C@H]5/C=C\CCCCN(C)C(=O)[C@@H]4C3)c3ccccc3n2)n1` [Compound 44, Cyclopropanesulfonic acid {17-[2-(4-isopropyl-thiazol-2-yl)-quinazolin-4-yloxy-]-13-methyl-2,14-dioxo-3,13-diaza-tricyclo[13.3.0.0*4,6*]octadec-7-ene-4-carbonyl}-amide], for which, in assay [1], the negative-log EC50 (pEC50) is 6.70 to 9.30. Further, the pKi in assay [2] was 8.31 to 10.00.

As to `COc1ccc2c(O[C@@H]3C[C@H]4C(=O)N[C@]5(C(=O)NS(=O)(=O)C6CC6)C[C@H]5/C=C\CCCCN(C)C(=O)[C@@H]4C3)nc(-c3nc(C(C)C)cs3)nc2c1` [Compound 45, Cyclopropanesulfonic acid {17-[2-(4-isopropyl-thiazol-2-yl)-7-methoxy-quinazolin-4-yloxy]-13-methyl-2,14-dioxo-3,13-diaza-tricyclo[13.3.0.0*4,6*]octadec-7-ene-4-carbonyl}-amide], the pEC50 in assay [1] is 6.70 to 9.30. This compound also gave a negative-log Ki (pKi) in assay [2] of 8.31 to 10.00.

In the case of `COc1ccc2c(O[C@@H]3C[C@H]4C(=O)N[C@]5(C(=O)NS(=O)(=O)C6CC6)C[C@H]5/C=C\CCCCN(C)C(=O)N4C3)nc(-c3ccccc3)nc2c1` [Compound 53, Cyclopropanesulfonic acid [17-(7-methoxy-2-phenyl-quinazolin-4-yloxy)-13-methyl-2,14-dioxo-3,13,15-triaza-tricyclo[13.3.0.0*4,6*]octadec-7-ene-4-carbonyl]-amide], in assay [1], the pEC50 was 6.70 to 9.30. In addition, the negative logarithm of the Ki (pKi) in assay [2] is 8.31 to 10.00.

With `CC(C)Nc1nc(O[C@@H]2C[C@H]3C(=O)N[C@]4(C(=O)NS(=O)(=O)C5CC5)C[C@H]4/C=C\CCCCN(C)C(=O)[C@@H]3C2)c2ccccc2n1` [Compound 71, Cyclopropanesulfonic acid [17-(2-isopropylamino-quinazolin-4-yloxy)-13-methyl-2,14-dioxo-3,13-diaza-tricyclo[13.3.0.0*4,6*]octadec-7-ene-4-carbonyl]-amide], the negative logarithm of the EC50 (pEC50) in assay [1] is 6.00 to 6.70. The pKi in assay [2] was 8.31 to 10.00.

In the case of `CN1CCCC/C=C\[C@@H]2C[C@@]2(C(=O)NS(=O)(=O)C2CC2)NC(=O)[C@@H]2C[C@@H](Oc3nc(N4CCCC4)nc4ccccc34)C[C@H]2C1=O` [Compound 72, Cyclopropanesulfonic acid [13-methyl-2,14-dioxo-17-[2-pyrrolidin-1-yl)-quinazolin-4-yloxy]-3,13-diaza-tricyclo[13.3.0.0*4,6*]octadec-7-ene-4-carbonyl]-amide], in assay [1], the pEC50 is 6.00 to 6.70. This compound also gave a pKi in assay [2] of 8.31 to 10.00.

For `CN1CCCC/C=C\[C@@H]2C[C@@]2(C(=O)NS(=O)(=O)C2CC2)NC(=O)[C@@H]2C[C@@H](Oc3nc(-c4ccc(C#N)cc4)nc4ccccc34)C[C@H]2C1=O` [Compound 73, Cyclopropanesulfonic acid {17-[2-(4-cyano-phenyl)-quinazolin-4-yloxy]-13-methyl-2,14-dioxo-3,13-diaza-tricyclo[13.3.0.0*4,6*]octadec-7-ene-4-carbonyl}-amide], in assay [1], the pEC50 was less than 5.00. The same compound gave a negative logarithm of the Ki (pKi) in assay [2] of 6.00 to 7.00.

For `COc1ccc2c(O[C@@H]3C[C@H]4C(=O)N[C@]5(C(=O)NS(=O)(=O)C6CC6)C[C@H]5/C=C\CCCCN(C)C(=O)[C@@H]4C3)nc(-c3ccccc3)nc2c1C` [Compound 89, Cyclopropanesulfonic acid [17-(7-methoxy-8-methyl-2-phenyl-quinazolin-4-yloxy)-13-methyl-2,14-dioxo-3,13-diaza-tricyclo[13.3.0.0*4,6*]octadec-7-ene-4-carbnyl]-amide], the negative-log EC50 (pEC50) in assay [1] is 6.70 to 9.30. The compound also showed a pKi in assay [2] of 8.31 to 10.00.

Take `COc1ccc2c(O[C@@H]3C[C@H]4C(=O)N[C@]5(C(=O)NS(=O)(=O)C6CC6)C[C@H]5/C=C\CCCCN(C)C(=O)N4C3)nc(-c3ccccc3)nc2c1C` [Compound 94, Cyclopropanesulfonic acid [17-(7-methoxy-8-methyl-2-phenyl-quinazolin-4-yloxy)-13-methyl-2,14-dioxo-3,13,15-triaza-tricyclo[13.3.0.0*4,6*]octadec-7-ene-4-carbonyl]-amide]: in assay [1], the pEC50 is 6.70 to 9.30. In assay [2], this compound gave a negative-log Ki (pKi) of 8.31 to 10.00.

For `COc1ccc2c(O[C@@H]3C[C@H]4C(=O)NC5(C(=O)NS(=O)(=O)C6CC6)C[C@H]5/C=C\CCCCN(C)C(=O)N4C3)nc(-c3ccc(F)cc3)nc2c1C` (some centres unmarked) [Compound 98, Cyclopropanesulfonic acid {17-[2-(4-fluoro-phenyl-(7-methoxy-8-methyl-quinazolin-4-yloxy)-13-methyl-2,14-dioxo-3,13,15-triaza-tricyclo[13.3.0.0*4,6*]octadec-7-ene-4-carbonyl}-amide], the negative-log EC50 (pEC50) in assay [1] was 6.70 to 9.30. The pKi in assay [2] was 8.31 to 10.00.
